Measurements taken from patent publication US7776847B2, “Benzisothiazoles useful for treating or preventing HCV infection” (priority 2005, dated 2010).
pIC50: −log10 of the molar value.

Tested on: HCV replicon
Experiment: HCV replicon luciferase reporter assay
Format: cell-based
Conditions: Hepatitis C virus, Table 5; read-out: IC50
Method in brief: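 Replicon-bearing dividing cells seeded at 5,000–7,500 cells/well, grown 24 h at 37° C/5% CO2, then exposed to test compound at various concentrations for a further 24–48 h. Replication/translation read by luciferase reporter; IC50 taken as compound amount giving 50% reduction in luciferase activity.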

O=C(N[C@@H](C(=O)NCCNc1nsc2ccccc12)c1ccccc1)c1ccc(Cl)cc1 [Compound 348, (R)-N-(2-(2-(benzo[d]isothiazol-3-ylamino)ethylamino)-2-oxo-1-phenylethyl)-4-chlorobenzamide] and O=C(NCCNc1nsc2ccccc12)c1ccc(-c2ccccc2O)cc1 [Compound 385, N-(2-(benzo[d]isothiazol-3-ylamino)ethyl)-2′-hydroxybiphenyl-4-carboxamide] cannot be ordered by pIC50: > 5.30 for the first, > 5.30 for the second.

Oc1ccc(Br)cc1CNCCCNc1nsc2ccccc12 [Compound 303, 2-((3-(benzo[d]isothiazol-3-ylamino)propylamino)methyl)-4-bromophenol] and COc1ccc(CNCCCNc2nsc3ccccc23)cc1O [Compound 304, 5-((3-(benzo[d]isothiazol-3-ylamino)propylamino)methyl)-2-methoxyphenol] cannot be ordered by pIC50: > 5.30 for the first, > 5.30 for the second.

O=C(NCCCNc1nsc2ccccc12)c1cc2ccc([N+](=O)[O-])cc2o1 [Compound 439, N-(3-(benzo[d]isothiazol-3-ylamino)propyl)-6-nitrobenzofuran-2-carboxamide] and O=C(NCCCNc1nsc2ccccc12)c1ccc(F)cc1 [Entry 234, N-(3-(benzo[d]isothiazol-3-ylamino)propyl)-4-fluorobenzamide] cannot be ordered by pIC50: > 5.30 for the first, > 5.30 for the second.

COc1ccc(-c2ccc(C(=O)NCCNc3nsc4ccccc34)cc2)c(C)c1 [Compound 366, N-(2-(benzo[d]isothiazol-3-ylamino)ethyl)-4′-methoxy-2′-methylbiphenyl-4-carboxamide] and COc1ccc(C)cc1-c1ccc(C(=O)NCCNc2nsc3ccccc23)cc1 [Compound 365, N-(2-(benzo[d]isothiazol-3-ylamino)ethyl)-2′-methoxy-5′-methylbiphenyl-4-carboxamide] cannot be ordered by pIC50: > 5.30 for the first, > 5.30 for the second.

COc1cccc(N2CCN(CC(O)COc3cccc(C(=O)NCCCNc4nsc5ccccc45)c3)CC2)c1 (stereo not shown) [Entry 233, N-(3-(benzo[d]isothiazol-3-ylamino)propyl)-3-(2-hydroxy-3-(4-(3-methoxyphenyl)piperazin-1-yl)propoxy)benzamide] and CCN1CCN(c2ccc(C(=O)NCCCNc3nsc4ccccc34)cc2)CC1 [Compound 296, N-(3-(benzo[d]isothiazol-3-ylamino)propyl)-4-(4-ethylpiperazin-1-yl)benzamide] cannot be ordered by pIC50: > 5.30 for the first, > 5.30 for the second.

CC(C)NC(=O)c1cccc(C(=O)NCCNc2nsc3ccccc23)c1 [Compound 430, N^1-(2-(benzo[d]isothiazol-3-ylamino)ethyl)-N^3-isopropylisophthalamide] and CCCNC(=O)c1cccc(C(=O)NCCNc2nsc3ccccc23)c1 [Compound 428, N^1-(2-(benzo[d]isothiazol-3-ylamino)ethyl)-N^3-propylisophthalamide] cannot be ordered by pIC50: > 5.30 for the first, > 5.30 for the second.

FC(F)(F)c1ccc(NCCCNc2nsc3ccccc23)nc1 [Entry 228, N-(3-(5-(trifluoromethyl)pyridin-2-ylamino)propyl)benzo[d]isothiazol-3-amine] and FC(F)(F)c1ccnc(NCCCNc2nsc3ccccc23)c1 [Entry 231, N^1-(benzo[d]isothiazol-3-yl)-N^3-(4-(trifluoromethyl)pyridin-2-yl)propane-1,3-diamine] cannot be ordered by pIC50: > 5.30 for the first, > 5.30 for the second.

Cc1ccc(OC(C)C)c(-c2ccc(C(=O)NCCNc3nsc4ccccc34)cc2)c1 [Compound 363, N-(2-(benzo[d]isothiazol-3-ylamino)ethyl)-2′-isopropoxy-5′-methylbiphenyl-4-carboxamide] and O=C(NCCCNc1nsc2ccccc12)c1ccc(Br)cc1 [Compound 289, N-(3-(benzo[d]isothiazol-3-ylamino)propyl)-4-bromobenzamide] cannot be ordered by pIC50: > 5.30 for the first, > 5.30 for the second.

Going from COc1ccc(-c2ccc(C(=O)NCCCNc3nsc4cccc(C(F)(F)F)c34)cc2)cc1 [Compound 500, 4′-methoxy-N-(3-(4-(trifluoromethyl)benzo[d]isothiazol-3-ylamino)propyl)biphenyl-4-carboxamide] to COc1ccc(-c2ccc(C(=O)NCCCNc3nsc4ccc(-c5ccc(OC(C)C)cc5)cc34)cc2)cc1 [Compound 409, N-(3-(5-(4-isopropoxyphenyl)benzo[d]isothiazol-3-ylamino)propyl)-4′-methoxybiphenyl-4-carboxamide], the pIC50 rises from < 5.30 to > 5.30.

COC(=O)c1cccc(C(=O)NCCNc2nsc3ccccc23)n1 [Entry 80, Methyl 6-(2-(Benzo[d]isothiazol-3-ylamino)ethylcarbamoyl)picolinate] and O=C(O)c1cccc(C(=O)NCCNc2nsc3ccccc23)n1 [Entry 81, 6-(2-(Benzo[d]isothiazol-3-ylamino)ethylcarbamoyl)picolinic Acid] cannot be ordered by pIC50: < 5.30 for the first, < 5.30 for the second.

COc1ccc(-c2ccc(S(=O)(=O)NCCCNc3nsc4ccccc34)cc2)cc1OC [Compound 332, N-(3-(benzo[d]isothiazol-3-ylamino)propyl)-3′,4′-dimethoxybiphenyl-4-sulfonamide] and COc1ccc(-c2ccc(CNCCCNc3nsc4ccccc34)cc2)cc1OC [Compound 292, N^1-(benzo[d]isothiazol-3-yl)-N^3-((3′,4′-dimethoxybiphenyl-4-yl)methyl)propane-1,3-diamine] cannot be ordered by pIC50: > 5.30 for the first, > 5.30 for the second.

O=S(=O)(NCCCNc1nsc2ccccc12)c1ccc(Oc2ccc(Cl)cc2)cc1 [Entry 223, N-(3-(benzo[d]isothiazol-3-ylamino)propyl)-4-(4-chlorophenoxy)benzenesulfonamide] and COc1ccc(S(=O)(=O)NCCCNc2nsc3ccccc23)cc1 [Compound 251, N-(3-(benzo[d]isothiazol-3-ylamino)propyl)-4-methoxybenzenesulfonamide] cannot be ordered by pIC50: > 5.30 for the first, > 5.30 for the second.

COC(=O)c1ccccc1S(=O)(=O)NCCCNc1nsc2ccccc12 [Compound 243, methyl 2-(N-(3-(benzo[d]isothiazol-3-ylamino)propyl)sulfamoyl)benzoate] and O=S(=O)(NCCCNc1nsc2ccccc12)c1ccc(Br)cc1Cl [Compound 262, N-(3-(benzo[d]isothiazol-3-ylamino)propyl)-4-bromo-2-chlorobenzenesulfonamide] cannot be ordered by pIC50: > 5.30 for the first, > 5.30 for the second.

FC(F)(F)c1ccccc1CNCCCNc1nsc2ccccc12 [Compound 326, N^1-(benzo[d]isothiazol-3-yl)-N^3-(2-(trifluoromethyl)benzyl)propane-1,3-diamine] and O=S(=O)(NCCCNc1nsc2ccccc12)c1ccc(Br)cc1C(F)(F)F [Compound 263, N-(3-(benzo[d]isothiazol-3-ylamino)propyl)-4-bromo-2-(trifluoromethyl)benzenesulfonamide] cannot be ordered by pIC50: > 5.30 for the first, > 5.30 for the second.

COC(=O)c1cnc(NCCCNc2nsc3ccccc23)cc1C(F)(F)F [Compound 284, methyl 6-(3-(benzo[d]isothiazol-3-ylamino)propylamino)-4-(trifluoromethyl)nicotinate] and O=S(=O)(NCCCNc1nsc2ccccc12)c1ccc(Br)c(C(F)(F)F)c1 [Compound 269, N-(3-(benzo[d]isothiazol-3-ylamino)propyl)-4-bromo-3-(trifluoromethyl)benzenesulfonamide] cannot be ordered by pIC50: > 5.30 for the first, > 5.30 for the second.

CC(C)(C)OC(=O)N1CC=C(c2cccc(C(=O)NCCCNc3nsc4ccccc34)c2)CC1 [Compound 390, tert-butyl 4-(3-(3-(benzo[d]isothiazol-3-ylamino)propylcarbamoyl)phenyl)-5,6-dihydropyridine-1(2H)-carboxylate] and CCCCNC(=O)c1cccc(C(=O)NCCNc2nsc3ccccc23)c1 [Compound 429, N^1-(2-(benzo[d]isothiazol-3-ylamino)ethyl)-N^3-butylisophthalamide] cannot be ordered by pIC50: > 5.30 for the first, > 5.30 for the second.

COc1ccc(-c2ccc(CN(CCCNc3nsc4ccccc34)C(=O)CC#N)cc2)cc1 [Compound 319, N-(3-(benzo[d]isothiazol-3-ylamino)propyl)-2-cyano-N-((4′-methoxybiphenyl-4-yl)methyl)acetamide] and COC(=O)c1ccc(-c2ccc(S(=O)(=O)NCCCNc3nsc4ccccc34)cc2)cc1 [Compound 334, methyl 4′-(N-(3-(benzo[d]isothiazol-3-ylamino)propyl)sulfamoyl)biphenyl-4-carboxylate] cannot be ordered by pIC50: > 5.30 for the first, > 5.30 for the second.

Compared with O=S(=O)(NCCCNc1nsc2ccccc12)c1cccc(OC(F)(F)F)c1 [Compound 266, N-(3-(benzo[d]isothiazol-3-ylamino)propyl)-3-(trifluoromethoxy)benzenesulfonamide], O=C(NCCNc1nsc2ccccc12)c1cccc(CO)c1 [Compound 416, N-(2-(benzo[d]isothiazol-3-ylamino)ethyl)-3-(hydroxymethyl)benzamide] is lower in pIC50: > 5.30 for the first, < 5.30 for the second. The first is the more potent here.

First: O=C(Cc1c[nH]c2ccccc12)NCCNc1nsc2ccccc12 [Entry 82, N-(2-(Benzo[d]isothiazol-3-ylamino)ethyl)-2-(1H-indol-3-yl)acetamide]
Second: O=C(NCCNc1nsc2ccccc12)c1ccc(F)cc1F [Compound 349, N-(2-(benzo[d]isothiazol-3-ylamino)ethyl)-2,4-difluorobenzamide]
The pIC50 of the first is lower: < 5.30 for the first, > 5.30 for the second.

CN(C)CCCNc1cccc(C(=O)NCCCNc2nsc3ccccc23)n1 [Compound 447, N-(3-(benzo[d]isothiazol-3-ylamino)propyl)-6-(3-(dimethylamino)propylamino)picolinamide] and Cc1cccnc1NCCCNc1nsc2ccccc12 [Compound 278, N^1-(benzo[d]isothiazol-3-yl)-N^3-(3-methylpyridin-2-yl)propane-1,3-diamine] cannot be ordered by pIC50: > 5.30 for the first, > 5.30 for the second.

CCCCc1ccc(C(=O)NCCCNc2n[s+]([O-])c3ccccc23)cc1 (stereo not shown) [Compound 321, 4-butyl-N-{3-[(1-oxido-1,2-benzisothiazol-3-yl)amino]propyl}benzamide] and O=S(=O)(c1ccc(CNCCCNc2nsc3ccccc23)cc1)N1CCOCC1 [Compound 259, N^1-(benzo[d]isothiazol-3-yl)-N^3-(4-(morpholinosulfonyl)benzyl)propane-1,3-diamine] cannot be ordered by pIC50: < 5.30 for the first, < 5.30 for the second.

For O=C(CC1CC1)NCCNc1nsc2ccccc12 [Entry 71, N-(2-(Benzo[d]isothiazol-3-ylamino)ethyl)-2-cyclopropylacetamide], the pIC50 was < 5.30.
